Laboratory results published in patent publication US20030134305A1, “Method for the enumeration of mammalian micronucleated erythrocyte populations with a single-laser flow cytometer” (priority 2001, published 2003).
“And” between values parts separate entries of the source, which are not always exact repeats. Equal entries are not always repeated.

Test system: rat peripheral blood erythrocyte populations
Conditions: male rat, oral, 10 mg/kg body weight/day for 6 days
[1] = tail vein blood ~24 hours after final administration, single replicate, 10 mg/kg/day

Method: Approximately 24 hours after the sixth and final administration, blood was collected from the tail vein after a brief warming period under a heat lamp. Blood was maintained in a sodium heparin solution (500 USP units heparin/ml PBS) at room temperature until samples were fixed with −80° C. methanol. The fixed blood samples were divided into several aliquots and were coded for single-blind analysis. […] Pellets were tapped loose and 40 μl of each cell suspension was transferred to tubes containing 100 μl labeling solution (1000 μl HBSS with 0.5% fetal bovine serum plus 5 μl anti-rat CD71-PE plus 20 μg RNase A). Cells were then incubated for 30 minutes at 4° C. and then 45 minutes at 37° C. Unbound antibody was washed by adding 3 ml HBSS plus 0.5% fetal bovine serum and centrifuging for 5 minutes at about 600×g. Supernatants were aspirated, and cell pellets were tapped loose. Cells were resuspended with 1 ml HBSS containing 10^−5 dilution of SYTOX Green nucleic acid dye. Sufficient time was allowed for the nucleic acid dye to load and equilibrate with the cells (about 15 minutes at 4° C.). Cells labeled with anti-CD71-PE and stained with SYTOX Green were analyzed with a FACSCalibur flow cytometer (488 nm excitation). The frequencies of RET^CD71+, MN-RET^CD71+ and MN-NCEs were determined. As commonly practiced by flow cytometry operators, events were gated on light scatter characteristics, and in this way subcellular debris or cellular aggregates were excluded from analysis. […] For these analyses, the stop mode was the acquisition of 20,000 RETs per replicate.

O=P1(N(CCCl)CCCl)NCCCO1 (centres unmarked) [cyclophosphamide]
% RET^CD71+ (CD71-positive reticulocytes) (tail vein blood ~24 hours after final administration, single replicate, 20,000 RETs per replicate): 2.66% and 2.72% and 2.57%
% MN-NCE (micronucleated normochromatic erythrocytes) [1]: 0.05% and 0.04% (2×)
% MN-RET^CD71+ (micronucleated CD71-positive reticulocytes) [1]: 0.73% and 0.64% and 0.63%
% MN-NCE (micronucleated normochromatic erythrocytes), Avg. (Avg. of 3 replicates): 0.04%
% MN-RET^CD71+ (micronucleated CD71-positive reticulocytes), Avg. (Avg. of 3 replicates): 0.67%
% RET^CD71+ (CD71-positive reticulocytes), Avg. (Avg. of 3 replicates): 2.65%
DNA-breaking activity: MN-RET^CD71+ frequency versus water-treated rat (result in words): increased
cytostatic effect: RET^CD71+ frequency versus water-treated rat (result in words): decreased
